Assay results: US20140193827A1 (TEVA PHARMACEUTICAL INDUSTRIES, LTD., priority 2013, published 2014)

System: GA-primed murine splenocytes
Assay: ANOVA-based pattern identification method
Assay type: cell-based, mouse
Settings: DOWN IN generic ONLY
Source text: We sought to identify probes matching specific patterns of expression across experimental conditions using a technique that referred to as the ANOVA-based Pattern Identification Method.
To carry out the analysis in a general manner, we computed the 6 p-values required to do pairwise comparisons of all 4 conditions for all probes using the ANOVA1 function in MATLAB. We then identified sets of probes matching the desired pattern. In the example above, probes were identified as being only affected by PG if their 6 pairwise comparison pvalues matched the following pattern (pGA-PG<0.05, pPG-reference standard<0.05, pPG-Medium<0.05, pGAMedium>0.05, pGA-reference standard>0.05, preference standard-Medium>0.05).

Q: glatiramer acetate [GA] was tested. Which GFRA3 expression level did it give?
A: 5.616

Q: And the GJA7 expression level?
A: 5.868

Q: What about the GM362 expression level of the same substance?
A: 5.639

Q: What about the HEATR5A expression level of the same substance?
A: 5.695

Q: And the “IGHVS515—AF290966_IG_HEAVY—VARIABLE_5515_49 expression level” value?
A: 5.952

Q: What about the LOC235971 expression level of the same substance?
A: 5.505

Q: What about the LOC277422 expression level of the same substance?
A: 5.729

Q: And the LOC382760 expression level?
A: 5.651

Q: What about the LOC382783 expression level of the same substance?
A: 5.536

Q: What about the LOC383612 expression level of the same substance?
A: 5.569

Q: What about the LOC383940 expression level of the same substance?
A: 5.805

Q: What about the LOC384215 expression level of the same substance?
A: 5.829

Q: And the LOC384513 expression level?
A: 5.705

Q: What about the LOC385059 expression level of the same substance?
A: 5.539

Q: What about the LOC385626 expression level of the same substance?
A: 6.046

Q: And the LOC620009 expression level?
A: 5.619

Q: And the LOC676672 expression level?
A: 5.825

Q: What about the LOC100043389 expression level of the same substance?
A: 5.675

Q: And the LTBP1 expression level?
A: 5.694

Q: What about the NEUROD4 expression level of the same substance?
A: 5.671

Q: What about the NFAT5 expression level of the same substance?
A: 5.815

Q: And the OA1 expression level?
A: 5.552

Q: What about the OLFR750 expression level of the same substance?
A: 5.646

Q: And the OLFR1085 expression level?
A: 5.642

Q: What about the OLFR1158 expression level of the same substance?
A: 5.912

Q: What about the OLFR1180 expression level of the same substance?
A: 5.658

Q: What about the OLFR1230 expression level of the same substance?
A: 5.655

Q: What about the OSBPL6 expression level of the same substance?
A: 5.8511

Q: What about the PCDHGA8 expression level of the same substance?
A: 5.782

Q: And the PIK3R4 expression level?
A: 5.881

Q: And the PPP1R14D expression level?
A: 5.611

Q: And the PTCHD2 expression level?
A: 5.831

Q: And the RARRES1 expression level?
A: 5.601

Q: And the RNF207 expression level?
A: 5.863

Q: And the RPL10A expression level?
A: 14.66

Q: And the RTN2 expression level?
A: 5.939

Q: What about the SCL0070954.1_214 expression level of the same substance?
A: 5.822

Q: And the SERPINB3D expression level?
A: 5.741

Q: What about the SMARCA2 expression level of the same substance?
A: 5.616

Q: And the TMEM219 expression level?
A: 6.158

Q: And the TRPC6 expression level?
A: 5.632

Q: What about the UTX expression level of the same substance?
A: 5.7

Q: What about the control_ILMN_1378571 expression level of the same substance?
A: 5.812

Q: And the control_ILMN_1378664 expression level?
A: 5.743

Q: What about the control_ILMN_1379333 expression level of the same substance?
A: 5.62

Q: What about the 1110032A03RIK expression (group mean) of the same substance?
A: 5.853

Q: What about the 1600012H06RIK expression (group mean) of the same substance?
A: 7.313

Q: And the 1600029O10RIK expression (group mean)?
A: 7.692

Q: And the 1600032L17RIK expression (group mean)?
A: 6.091

Q: What about the 1700006H02RIK expression (group mean) of the same substance?
A: 5.861

Q: And the 1700011H14RIK expression (group mean)?
A: 5.738

Q: And the 1700016G05RIK expression (group mean)?
A: 5.78

Q: What about the 1700016L04RIK expression (group mean) of the same substance?
A: 5.693

Q: What about the 1700045I19RIK expression (group mean) of the same substance?
A: 5.885

Q: What about the 1700073E17RIK expression (group mean) of the same substance?
A: 5.629

Q: And the 1700112H15RIK expression (group mean)?
A: 5.628

Q: What about the 1810005K13RIK expression (group mean) of the same substance?
A: 5.74

Q: What about the 1810007M14RIK expression (group mean) of the same substance?
A: 6.86

Q: What about the 2210008F06RIK expression (group mean) of the same substance?
A: 5.65

Q: And the 2210018M11RIK expression (group mean)?
A: 6.603

Q: What about the 2310016E02RIK expression (group mean) of the same substance?
A: 5.742

Q: What about the 2510049I19RIK expression (group mean) of the same substance?
A: 6.311

Q: And the 2600011C06RIK expression (group mean)?
A: 6.286

Q: What about the 2810402E24RIK expression (group mean) of the same substance?
A: 6.296

Q: What about the 4733401O04RIK expression (group mean) of the same substance?
A: 6.449

Q: What about the 4833420G17RIK expression (group mean) of the same substance?
A: 6.181

Q: And the 4921505C17RIK expression (group mean)?
A: 6.382

Q: And the 4921506J03RIK expression (group mean)?
A: 9.893

Q: What about the 4921506M07RIK expression (group mean) of the same substance?
A: 5.749

Q: And the 4922502D21RIK expression (group mean)?
A: 5.774

Q: What about the 4930449I04RIK expression (group mean) of the same substance?
A: 5.894

Q: What about the 4930524L23RIK expression (group mean) of the same substance?
A: 5.492

Q: And the 5830411J07RIK expression (group mean)?
A: 5.837

Q: What about the 5830415L20RIK expression (group mean) of the same substance?
A: 7.797

Q: What about the 5830472H07RIK expression (group mean) of the same substance?
A: 6.24

Q: What about the 6030408K21RIK expression (group mean) of the same substance?
A: 5.64

Q: What about the 9030003C19RIK expression (group mean) of the same substance?
A: 6.271

Q: What about the 9130601C02RIK expression (group mean) of the same substance?
A: 5.724

Q: And the 9330133O14RIK expression (group mean)?
A: 6.205

Q: What about the 9330171B01RIK expression (group mean) of the same substance?
A: 5.814

Q: What about the 9530013H16R1K expression (group mean) of the same substance?
A: 5.782

Q: And the 9530053H22 expression (group mean)?
A: 5.531

Q: And the 9830118G07RIK expression (group mean)?
A: 6.53

Q: And the 9930021J03RIK expression (group mean)?
A: 5.61

Q: What about the 6030408816RIK expression (group mean) of the same substance?
A: 6.231

Q: What about the A130003P22RIK expression (group mean) of the same substance?
A: 6.043

Q: And the A130027D22RIK expression (group mean)?
A: 6.184

Q: What about the A630040J04RIK expression (group mean) of the same substance?
A: 5.997

Q: What about the A630057J21RIK expression (group mean) of the same substance?
A: 5.71

Q: What about the A730082L10RIK expression (group mean) of the same substance?
A: 6.255

Q: And the A930008A22RIK expression (group mean)?
A: 8.393

Q: And the A930025D01RIK expression (group mean)?
A: 6.43

Q: What about the ADRA1B expression (group mean) of the same substance?
A: 5.76

Q: And the AFMID expression (group mean)?
A: 6.226

Q: What about the AGPAT5 expression (group mean) of the same substance?
A: 5.926

Q: What about the AGT expression (group mean) of the same substance?
A: 5.634

Q: What about the APOM expression (group mean) of the same substance?
A: 6.071

Q: And the ARHGAP12 expression (group mean)?
A: 5.654

Q: And the ASH1L expression (group mean)?
A: 5.947

Q: And the ATG12 expression (group mean)?
A: 8.962

Q: What about the ATL1 expression (group mean) of the same substance?
A: 5.666

Q: What about the AW822252 expression (group mean) of the same substance?
A: 5.749

Q: And the B230120H23RIK expression (group mean)?
A: 5.612

Q: And the B230216G23RIK expression (group mean)?
A: 5.625

Q: And the B930071N01RIK expression (group mean)?
A: 5.764

Q: What about the BC003331 expression (group mean) of the same substance?
A: 7.368

Q: What about the BC016608 expression (group mean) of the same substance?
A: 5.838

Q: What about the BC057371 expression (group mean) of the same substance?
A: 5.752

Q: And the BCL10 expression (group mean)?
A: 6.261

Q: And the BCL11B expression (group mean)?
A: 6.506

Q: What about the BCORL1 expression (group mean) of the same substance?
A: 6.102

Q: What about the BHLHB3 expression (group mean) of the same substance?
A: 5.621

Q: What about the BIRC6 expression (group mean) of the same substance?
A: 6.264

Q: And the BMPR1B expression (group mean)?
A: 5.732

Q: And the C030004B10RIK expression (group mean)?
A: 5.708

Q: What about the C77370 expression (group mean) of the same substance?
A: 5.694

Q: What about the C87414 expression (group mean) of the same substance?
A: 5.972

Q: And the C130039E17RIK expression (group mean)?
A: 5.729

Q: What about the C130064E22RIK expression (group mean) of the same substance?
A: 7.411

Q: What about the C130072C03RIK expression (group mean) of the same substance?
A: 6.075

Q: And the C130075H21RIK expression (group mean)?
A: 5.869

Q: What about the C130078D09RIK expression (group mean) of the same substance?
A: 6.02

Q: And the C330011J12RIK expression (group mean)?
A: 5.722

Q: What about the CALCRL expression (group mean) of the same substance?
A: 5.569

Q: And the CCDC104 expression (group mean)?
A: 5.832

Q: What about the CDH23 expression (group mean) of the same substance?
A: 5.945

Q: And the CDKN1B expression (group mean)?
A: 6.29
